This is an account of results in US20260053750A1, “INHALABLE COMPOSITIONS OF CDK9 INHIBITORS” (THE REGENTS OF THE UNIVERSITY OF CALIFORNIA, priority 2022, published 2026).

SMILES strings stand for the structures.

Series [1] can be described thus: encapsulation and release in microparticles of the invention. It counts as physicochemical.
Series [2] relates to NFκB target genes. The experiment in a line: suppression of IL-1β-induced primary inflammatory response genes in human cell culture. It counts as cell-based. The protocol: CDK9 inhibitors exert effects on the inflammatory response pathway. For example, the pharmacological CDK9 inhibitor flavopiridol effectively suppresses the activation of a broad range of primary inflammatory response genes, in human cell culture treated with IL-1β for 5 hours (see FIG. 1). Among the 67 different genes (out of 84 total NFκB target genes tested) that were induced by IL-1β, 59 were repressed by flavopiridol co-treatment (including the most-characterized pro-inflammatory cytokines such as IL-1β, Il-6, and TNF). The average magnitude of repression is >86% of maximum induction. […] Importantly, house-keeping genes and non-inducible genes are not affected by CDK9 inhibition short term, indicating potential reduction in side effects.

For series [3], the system named is TNF-stimulated luciferase reporter expression, driven by a NF-kB responsive promoter, in HEK293 cells. The experiment in a line: NF-kB luciferase reporter bioactivity assay. The series is classed as cell-based, Human. The note with it: 300 nM flavopiridol, 0.6 nM TNF-α, 24 h.
Method: The bioactivity of flavopiridol released from ILDF particles was determined by a luciferase reporter assay as described previously. ILDF particles (18.94 mg) containing 0.190% (w/w) flavopiridol was dissolved in DMEM with 10% FBS to a stock solution of 8.9×10^4 nM flavopiridol. The bioactivity of flavopiridol was measured by its ability to suppress TNF-stimulated luciferase reporter expression, driven by a NF-kB responsive promoter. Human embryonic kidney 293 cells (HEK293) cells (ATCC) harboring a NF-kB-driven luciferase reporter were seeded in 96-well plates (10,000 cells/well in triplicates) 24 hours before the experiment. Cells were then treated with 100 μL of media containing 0.6 nM recombinant human TNF-α (Peprotech), in the presence or absence of various amount of dissolved flavopiridol formulation or blank formulation equivalent. After 24 h, 100 μL of 2× lysis buffer (Invitrogen) containing luciferase substrate was added directly to each well. Luminescence was measured in a plate reader (SpectraMax iD3, Molecular Devices). Experiments were performed in triplicate (N=3) from one batch of particles, and results were reported as mean±SD.
Series [4] has as its system lung fibrosis mouse model (bleomycin). Put plainly: bleomycin lung fibrosis mouse model, i.p. treatment. The series is classed as in vivo, C57B/L6 mice. The conditions noted are these: vs BLM+ vehicle control. The protocol: The effects of flavopiridol on lung inflammation and fibrosis were assessed in a lung fibrosis mouse model. C57B/L6 mice were treated with bleomycin (BLM) by microsprayer. At day 7 after BLM treatment, alveolar damage became apparent in the treated mice. At day 9, the mice were divided into 4 groups of 8 animals each. Each group received its corresponding treatment every other day starting at Day 9. At Day 30, the animals were sacrificed and assessed. One group received only phosphate buffer saline (PBS). One group received 28 mg/kg nitedanib by intraperitoneal injection (i.p.). One group received 2.5 mg/kg of flavopiridol i.p. and one group received 28 mg/kg idebenone i.p. Survival and lung morphology were assessed at day 30. […] Lung tissue sections from the treated animals were stained with Masson's trichome staining protocol and exemplary images are shown in FIG. 8D.

Series [5] concerns pulmonary fibrosis in mice using bleomycin. Put plainly: bleomycin pulmonary fibrosis in mice, inhaled flavopiridol. The conditions noted are these: every two days from eight days post-bleomycin, 14-day treatment. The series is classed as in vivo. The protocol: Our experimental model involved the induction of pulmonary fibrosis in mice using bleomycin, followed by the administration of inhaled flavopiridol during the early fibrotic phase of the model. Eight days post-intratracheal instillation of bleomycin, mice were treated with either a vehicle or inhaled flavopiridol every two days. After a 14-day treatment course, lung tissues were harvested and subjected to histological and biochemical analysis. A notable loss of body weight observed in bleomycin-exposed mice served as an indicator of successful fibrosis induction (FIG. 9).

The conditions of series [6]: cited from earlier work.
[7] abbreviates: 2.5 mg/kg i.p. every other day from Day 9, Day 30.

Take `CCc1cnn2c(NCc3ccc[n+]([O-])c3)cc(N3CCCC[C@H]3CCO)nc12` [Dinaciclib]: the “encapsulation and release in microparticles” value in series [1] is “not encapsulated effectively or released appropriately”.

As to `CN1CC[C@H](c2c(O)cc(O)c3c(=O)cc(-c4ccccc4Cl)oc23)[C@H](O)C1` [flavopiridol, 2-(2-chlorophenyl)-5,7-dihydroxy-8-[(3S,4R)-3-hydroxy-1-methyl-4-piperidinyl]-4-chromenone], the “average magnitude of repression” value in series [2] (human cell culture treated with IL-1β for 5 hours, flavopiridol co-treatment) is reported as > 86 % of maximum induction. Moreover, the “number of IL-1β-induced genes repressed by flavopiridol co-treatment” value in series [2] (of 67 genes induced by IL-1β (84 NFκB target genes tested), human cell culture, IL-1β for 5 hours) came out at 59. The TNF-α-stimulated luciferase activity entry in series [3] is given as “the luciferase activation was suppressed”. For the same compound, in series [4] (setting [7]), the hydroxyproline level result is “statistically significant lower level of hydroxyproline” and the “percentage of stained area (Masson's trichome, lung sections)” value is reported as “statistically significant decrease in percentage of stained area”. The survival rate result in series [4] (2.5 mg/kg i.p. every other day from Day 9, to Day 30) was “statistically significant difference in survival rate”. Further, in series [4] (2.5 mg/kg i.p. every other day from Day 9), the body weight result is “generally maintained a higher body weight”. Also, the hydroxyproline levels entry in series [5] is recorded as “appeared to suppress the bleomycin-induced increase of hydroxyproline levels”. Also, in series [5] (vs vehicle group), the survival rate entry was “higher survival rate”. Also, the in-vivo half-life result in series [6] is given as “under 6 hours”.
